Measured values from patent US5954858A, “Bioreactor process for the continuous removal of organic compounds from a vapor phase process stream” (North Carolina State University, priority 1996, dated 1999).
“Also recorded” adds a separate entry of the source.

Tests used:
[1] = tested on: initial gasoline consortium; experiment: Enrichment of the initial gasoline consortium in individual flasks; format: cell-based, organisms isolated from gasoline-saturated soil samples
Text: (§1) Using a mixed consortium of organisms isolated in liquid culture from soil samples removed from a site saturated with gasoline for a number of years, the model compounds from each of the represented species in furniture exhaust gases were examined for degradability. Degradability actually refers to the ability of the microorganisms to utilize a compound as a carbon source for growth and energy. Different carbon sources are preferred by different organisms, so it was important to determine which model compounds were acceptable for the consortium which was isolated. Following completion of these initial studies, organism subcultures were generated for specific compounds.

Strain mx-2 = experiment: Oxygen uptake rate, strain mx-2; format: cell-based, bacterial strain mx-2
Description: (§2) Experiments were conducted to examine the range of compounds degraded by enzymes present in the metabolic pathways of the strains established on meta- and para-xylene, as described in Example 7. […] The compounds listed Table 7 from benzoate through protocatechuate are enzymatic pathway intermediates in the oxidation of aromatic compounds.

isolated consortia = experiment: Growth rate of cultures on o-xylene; format: cell-based, bacterial cultures isolated from soil samples
Text: as §1
Pure bacterial cultures (single identifiable organisms) were established on meta- and para-xylene; the other cultures consisted of approximately three different bacterial strains each. Maximum growth rates for the isolated consortia were determined in shake flask studies containing minimal media and supplemented with the appropriate compound. Concentrations of volatile organic compounds added to the flasks were 400 ppm (mole/mole) for MEK and MIBK, 150 ppm for m-xylene and p-xylene, and 2000 ppm for IBA and methanol.

isolated soil consortia = experiment: Degradability / utilization as growth substrate by isolated soil consortia; format: cell-based; details: utilization as carbon source for growth and energy
Text: as §1

Strain px-2 = experiment: Oxygen uptake rate, strain px-2; format: cell-based, bacterial strain px-2
Description: as §2

mx-2 [2] = experiment: m-Xylene degradation rate of mx-2 strain; format: cell-based, mx-2 bacterial strain
Text: as §1, with “Different carbon sources are preferred by different organisms, so it was important to determine which model compounds were acceptable for the consortium which was isolated.” left out
(§3) Maximum growth rates for the isolated consortia were determined in shake flask studies containing minimal media and supplemented with the appropriate compound. Concentrations of volatile organic compounds added to the flasks were 400 ppm (mole/mole) for MEK and MIBK, 150 ppm for m-xylene and p-xylene, and 2000 ppm for IBA and methanol.
(§4) The effects of carbon source composition were examined for the mx-2 bacterial strain. mx-2 is one of the strains of microorganism isolated from soil samples exposed to gasoline as described in Example 7.
(§5) In addition to examining the effects of ethanol and methanol, the impact of octanol on microorganism growth was determined. This investigation was necessary since some octanol (stripping fluid) will be delivered to the membrane bioreactor with the VHAPs/VOCs.

mx-2 [3] = experiment: Growth rate of mx-2 strain in shake flask; format: cell-based, mx-2 bacterial strain; details: for effect on the growth rate: mx-2 mixed carbon source study
Text: as §1, with “Different carbon sources are preferred by different organisms, so it was important to determine which model compounds were acceptable for the consortium which was isolated.” left out
as §3, §4, §5

[4] = Partition coefficient of solute between octanol and water; format: physicochemical; details: 31 °C
[5] = Partition coefficient of solute between stripping fluid (octanol) and air; format: physicochemical
Description: Before beginning work with the LIQUI-CEL® membrane modules presented in Example 2, partition coefficient experiments were performed to investigate the equilibrium distribution of m-xylene, MEK, and MIBK between phases for stripping fluid/air. Octanol was chosen as the stripping fluid because data from previously conducted studies was readily available for comparison.
(§6) Partition coefficients are defined as a measure of the affinity a solute has for one phase over another at equilibrium. Therefore, they are an integral part of equations related to membrane contactor design and operation. Partition coefficients are expressed as a ratio of concentrations; the general form being (concentration in solvent)/(concentration in air).
For these studies, two forms of the partition coefficient were used. The first was the general form, which indicated the level of driving force for mass transfer (a value greater than 1 indicates sufficient driving force). The second form was defined as 1/(general form), or 1/Pgen, which was used in system operating equations.

[6] = Partition coefficient of m-xylene between natural oils and air; format: physicochemical; details: 31 °C
Text: as §6
An additional set of experiments was run to evaluate stripping fluids other than octanol. This was due mainly to the relatively high cost of commercially available octanol. Partition coefficients were determined for m-xylene in several natural oils at 31° C. […] The purchase cost of these oils is roughly one-quarter that of octanol.

[7] = mx-2 on m-xylene, + 500 ppm octanol

SMILES	cultures capable of degrading compound after enrichment [1]	Oxygen Uptake (Strain mx-2)	Degradability (isolated soil consortia)	Oxygen Uptake (Strain px-2)	further results
CC(=O)OCC(C)C [isobutyl acetate]	cultures capable of degrading each compound were developed	–	–	–	–
Cc1ccccc1C [o-Xylene]	–	0.31 μmol/min-mg total protein	Yes	–	growth rate compared with other compounds (isolated consortia): relatively slow compared with that on other compounds
O=C(O)c1ccccc1 [Benzoate]	–	0.66 μmol/min-mg total protein	–	2.34 μmol/min-mg total protein	–
CC(C)=O [Acetone]	–	–	Yes	–	–
CC(C)CO [Isobutyl alcohol]	–	–	Yes	–	–
c1ccccc1 [Benzene]	–	0.27 μmol/min-mg total protein	–	0.13 μmol/min-mg total protein	–
C=Cc1ccccc1 [Styrene]	–	0.55 μmol/min-mg total protein	Yes	0.47 μmol/min-mg total protein	–
CO [Methanol, methanol]	cultures capable of degrading each compound were developed	–	Yes	–	Degradation Rate (mx-2 [2]; mx-2 on m-xylene, + 0.2% MeOH): 3.57 * 10^-10 mg/(hr - cell); effect on the growth rate (mx-2 [3]): negligible; also recorded: no effect; Specific Growth Rate (mx-2 [3]; mx-2 on m-xylene, + 0.2% MeOH): 0.45 h⁻¹
CCCCCCCCO [octanol]	–	–	–	–	Degradation Rate (mx-2 [2]; [7]): 3.60 * 10^-10 mg/(hr - cell); effect on the degradation rate (mx-2 [2]; test microorganism strain grown on m-xylene): no effect; Specific Growth Rate (mx-2 [3]; 500 ppm octanol (without "+")): 0.20 h⁻¹; effect on the growth rate (mx-2 [3]): no effect; Specific Growth Rate (mx-2 [3]; [7]): 0.46 h⁻¹
Cc1ccccc1 [Toluene]	–	0.18 μmol/min-mg total protein	Yes	0.17 μmol/min-mg total protein	–
CCCCO [n-Butyl alcohol]	–	–	Yes	–	–
CC(=O)CC(C)C [MIBK, methyl isobutyl ketone]	cultures capable of degrading each compound were developed	–	Yes	–	Partition Coef. [oct]/[water] [4]: 2.1; Partition Coef. [oct]/[air] ([5]; 6 °C): .infin.; Partition Coef. [oct]/[air] ([5]; 22 °C): 22,045; Partition Coef. [oct]/[air] ([5]; 31 °C): 8,721
CCC(C)=O [MEK, methyl ethyl ketone]	cultures capable of degrading each compound were developed	–	Yes	–	–
C=O [Formaldehyde]	–	–	Yes	–	–
CCO [Ethanol]	–	–	Yes	–	reduction of the degradation rate of m-xylene (mx-2 [2]; mx-2, in presence of ethanol): about 30%; Degradation Rate (mx-2 [2]; mx-2 on m-xylene, + 0.2% EtOH): 2.34 * 10^-10 mg/(hr - cell); effect on the growth rate (mx-2 [3]): negligible; Specific Growth Rate (mx-2 [3]; mx-2 on m-xylene, + 0.2% EtOH): 0.40 h⁻¹; lowering of the maximum growth rate (mx-2 [3]; mx-2 on m-xylene, in presence of ethanol): 10%
Cc1cccc(C)c1 [m-xylene]	cultures capable of degrading each compound were developed	0.82 μmol/min-mg total protein	Yes	0.31 μmol/min-mg total protein	Degradation Rate (mx-2 [2]; mx-2 (grown on m-xylene, 150 ppm)): 3.60 * 10^-10 mg/(hr - cell); Partition Coef. [oct]/[water] [4]: 1,021; Partition Coef. [oct]/[air] ([5]; 6 °C): 9,865; Partition Coef. [oct]/[air] ([5]; 22 °C): 7,978; Partition Coef. [oct]/[air] ([5]; 31 °C): 7,703; form 2 partition coefficient, Pair/oct (1/general form) ([5]; air/stripping fluid separation unit): 0.00014; Partition Coef. [solvent]/[air] ([6]; corn oil): 8,283; Partition Coef. [solvent]/[air] ([6]; mineral oil): 7,284; Partition coefficients in natural oils versus octanol ([6]; natural oils evaluated): comparable to those for octanol; Partition Coef. [solvent]/[air] ([6]; sunflower seed oil): 8,244; Specific Growth Rate (mx-2 [3]; mx-2 (strain grown on m-xylene, 150 ppm)): 0.46 hr^1
Cc1ccc(C)cc1 [p-Xylene]	cultures capable of degrading each compound were developed	1.21 μmol/min-mg total protein	Yes	0.34 μmol/min-mg total protein	–
Cc1ccc(O)c(O)c1 [4-Methylcatechol]	–	0.92 μmol/min-mg total protein	–	4.35 μmol/min-mg total protein	–
Cc1cccc(O)c1O [3-Methylcatechol]	–	1.17 μmol/min-mg total protein	–	1.50 μmol/min-mg total protein	–
Oc1ccccc1O [Catechol]	–	1.23 μmol/min-mg total protein	–	5.19 μmol/min-mg total protein	–
